Assay results reported in patent US20240199605A1, “SMALL MOLECULAR INHIBITORS OF NF-kB INDUCING KINASE” (Janssen Pharmaceutica NV, priority 2019, published 2024).

Assays:
[1] = biological target: recombinant human NF-kappaB-inducing kinase (NIK/MAP3K14) (Homo sapiens (Human), UniProt Q99558); experiment: Inhibition of auto-phosphorylation of recombinant human NIK/MAP3K14 (AlphaScreen); type: biochemical; details: NIK auto-phosphorylation, 5 μM ATP, 1 nM NIK, 2 h at 25° C.; average of values
In short: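 AlphaScreen read-out (anti-phospho-IKK Ser176/180 antibody, Protein A acceptor and glutathione donor beads) of NIK auto-phosphorylation. Reaction: 1 nM enzyme, 5 μM ATP, Tris pH 7.5 buffer with Mg2+ and vanadate, 2 h at 25° C., final DMSO 0.7%. IC50 came from a sigmoidal curve fit.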

[2] = tested on: p-IKKα levels in L363 (NIK translocated multiple myeloma) cells; experiment: Effect of compounds on p-IKKα levels in L363 cells (AlphaLISA SureFire Ultra); type: cell-based, human; details: Homo sapiens, L-363, 6 h, BAFF stimulated, MG132, 6 h, average of values, read-out: Assay 2 IC50
In short: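 Inhibition of p-IKKα (Ser176/180) read by AlphaLISA after 6 h, 37 °C compound exposure (11-point 1:3 series, 0.3% DMSO) of L363 cells pre-incubated overnight ± 250 ng/ml BAFF and plated ± BAFF ± 10 μM MG132. Normalised to BAFF/MG132/DMSO and unstimulated controls; IC50 by sigmoidal fitting, duplicates.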

Sequence of recombinant human NF-kappaB-inducing kinase (NIK/MAP3K14) (Q99558 whole entry): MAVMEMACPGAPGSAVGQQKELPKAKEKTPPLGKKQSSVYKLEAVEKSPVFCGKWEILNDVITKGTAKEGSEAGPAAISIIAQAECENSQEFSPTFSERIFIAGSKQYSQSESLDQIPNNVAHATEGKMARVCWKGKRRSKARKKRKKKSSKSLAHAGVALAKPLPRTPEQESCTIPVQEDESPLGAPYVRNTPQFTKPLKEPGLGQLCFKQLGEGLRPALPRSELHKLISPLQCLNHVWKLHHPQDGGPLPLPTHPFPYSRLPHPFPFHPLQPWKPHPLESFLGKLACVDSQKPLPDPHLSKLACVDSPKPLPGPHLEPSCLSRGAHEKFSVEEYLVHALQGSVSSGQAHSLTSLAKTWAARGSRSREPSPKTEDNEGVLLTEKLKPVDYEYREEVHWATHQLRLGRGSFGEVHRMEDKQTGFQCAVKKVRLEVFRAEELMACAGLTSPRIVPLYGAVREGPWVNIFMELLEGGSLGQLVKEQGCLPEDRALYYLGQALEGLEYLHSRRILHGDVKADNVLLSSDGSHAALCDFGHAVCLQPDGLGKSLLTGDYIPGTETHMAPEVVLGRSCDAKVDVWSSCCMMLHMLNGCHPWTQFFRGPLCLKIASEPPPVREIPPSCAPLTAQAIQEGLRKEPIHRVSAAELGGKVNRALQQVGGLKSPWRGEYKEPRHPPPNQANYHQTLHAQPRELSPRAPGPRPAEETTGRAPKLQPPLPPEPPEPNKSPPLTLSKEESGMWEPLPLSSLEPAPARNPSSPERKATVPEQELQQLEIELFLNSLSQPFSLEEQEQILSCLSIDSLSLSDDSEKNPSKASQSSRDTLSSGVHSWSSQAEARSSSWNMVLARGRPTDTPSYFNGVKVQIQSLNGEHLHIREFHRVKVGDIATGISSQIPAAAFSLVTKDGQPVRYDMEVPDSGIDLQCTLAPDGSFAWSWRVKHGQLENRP

SMILES | IC50 [1] [nM] | IC50 [2] [nM]
CN1CC[C@@](O)(C#Cc2cccc(-c3ccc4c(c3)c(N)nn4C(=O)OC(C)(C)C)c2)C1=O [Example 169, (R)-tert-Butyl 3-amino-5-[3-[2-(3-hydroxy-1-methyl-2-oxo-pyrrolidin-3-yl)ethynyl]phenyl]indazole-1-carboxylate] | 1210 | > 5000
CN1CC[C@@](O)(C#Cc2cccc(-c3ccc4nc(CF)nc(N)c4n3)c2)C1=O [Example 170, (R)-3-((3-(4-Amino-2-(fluoromethyl)pyrido[3,2-d]pyrimidin-6-yl)phenyl)ethynyl)-3-hydroxy-1-methylpyrrolidin-2-one] | 0.8 | 22
CN1CC[C@@](O)(C#Cc2cccc(-c3ccc4c(CN5CCCC5)cnc(N)c4n3)c2)C1=O [Example 171, (R)-3-[2-[3-[8-Amino-5-(pyrrolidin-1-ylmethyl)-1,7-naphthyridin-2-yl]phenyl]ethynyl]-3-hydroxy-1-methyl-pyrrolidin-2-one] | 4 | 180
CN(C)Cc1cnc(N)c2nc(-c3cccc(C#C[C@]4(O)CCN(C)C4=O)c3)ccc12 [Example 172, (R)-3-[2-[3-[8-Amino-5-(dimethylaminomethyl)-1,7-naphthyridin-2-yl]phenyl]ethynyl]-3-hydroxy-1-methyl-pyrrolidin-2-one] | 20 | 400
CN1CC[C@@](O)(C#Cc2cccc(-c3ccc4nc(CO)nc(N)c4n3)c2)C1=O [Example 173, (R)-3-((3-(4-Amino-2-(hydroxymethyl)pyrido[3,2-d]pyrimidin-6-yl)phenyl)ethynyl)-3-hydroxy-1-methylpyrrolidin-2-one] | 12 | 180
CN1CC[C@@](O)(C#Cc2cccc(-c3ccc4[nH]nc(N)c4c3)c2)C1=O [Example 174, (R)-3-[2-[3-(3-Amino-1H-indazol-5-yl)phenyl]ethynyl]-3-hydroxy-1-methyl-pyrrolidin-2-one] | 830 | > 5000
CN1CC[C@@](O)(C#Cc2cccc(-c3ccc4nc(C5CC5)nc(N)c4n3)c2)C1=O [Example 175, (R)-3-((3-(4-Amino-2-cyclopropylpyrido[3,2-d]pyrimidin-6-yl)phenyl)ethynyl)-3-hydroxy-1-methylpyrrolidin-2-one] | 2.4 | 230
CN1CC[C@@](O)(C#Cc2cccc(-c3ccc4nc(C(F)(F)F)nc(N)c4n3)c2)C1=O [Example 176, (R)-3-((3-(4-Amino-2-(trifluoromethyl)pyrido[3,2-d]pyrimidin-6-yl)phenyl)ethynyl)-3-hydroxy-1-methylpyrrolidin-2-one] | 1.4 | 81
COc1ccc(C#C[C@]2(O)CCN(C)C2=O)cc1-c1ncc2ncnc(N)c2n1 [Example 177, (R)-3-((3-(8-Aminopyrimido[5,4-d]pyrimidin-2-yl)-4-methoxyphenyl)ethynyl)-3-hydroxy-1-methylpyrrolidin-2-one] | 5.1 | 66
Cc1nc(N)c2nc(-c3cccc(C#C[C@]4(O)CCN(C)C4=O)c3)c(C)cc2n1 [Example 178, (R)-3-((3-(4-Amino-2,7-dimethylpyrido[3,2-d]pyrimidin-6-yl)phenyl)ethynyl)-3-hydroxy-1-methylpyrrolidin-2-one] | 18 | 820
CN1CC[C@@](O)(C#Cc2cccc(-n3cc4c(N)ncnc4n3)c2)C1=O [Example 179, (R)-3-((3-(4-Amino-2H-pyrazolo[3,4-d]pyrimidin-2-yl)phenyl)ethynyl)-3-hydroxy-1-methylpyrrolidin-2-one] | 1170 | > 5000
Cc1csc([C@](C)(O)C#Cc2cccc(-c3ccc4nc(C)nc(N)c4n3)c2)n1 [Example 180, (R)-4-(3-(4-Amino-2-methylpyrido[3,2-d]pyrimidin-6-yl)phenyl)-2-(4-methylthiazol-2-yl)but-3-yn-2-ol] | 410 | > 5000
Cc1csc([C@@](C)(O)C#Cc2cccc(-c3ccc4nc(C)nc(N)c4n3)c2)n1 [Example 181, (S)-4-(3-(4-Amino-2-methylpyrido[3,2-d]pyrimidin-6-yl)phenyl)-2-(4-methylthiazol-2-yl)but-3-yn-2-ol] | > 5000 | > 5000
Cc1nc(N)c2nc(-c3cc(C#C[C@]4(O)CCN(C)C4=O)ccc3C)sc2n1 [Example 182, (R)-3-[2-[3-(7-Amino-5-methyl-thiazolo[5,4-d]pyrimidin-2-yl)-4-methyl-phenyl]ethynyl]-3-hydroxy-1-methyl-pyrrolidin-2-one] | 1.2 | 74
Cc1ccc(C#C[C@]2(O)CCn3ccnc32)cc1-c1nc2c(N)ncnc2s1 [Example 183, (R)-7-[2-[3-(7-Aminothiazolo[5,4-d]pyrimidin-2-yl)-4-methyl-phenyl]ethynyl]-5,6-dihydropyrrolo[1,2-a]imidazol-7-ol] | ≤ 0.5 | 6.6
Cc1ccc(C#C[C@]2(O)CCc3cccnc32)cc1-c1nc2c(N)ncnc2s1 [Example 184, (R)-7-[2-[3-(7-Aminothiazolo[5,4-d]pyrimidin-2-yl)-4-methyl-phenyl]ethynyl]-5,6-dihydrocyclopenta[b]pyridin-7-ol] | ≤ 0.5 | 9.9
Cc1ccc(C#CC2(O)CCCC2)cc1-c1nc2c(N)ncnc2s1 [Example 185, 1-[2-[3-(7-Aminothiazolo[5,4-d]pyrimidin-2-yl)-4-methyl-phenyl]ethynyl]cyclopentanol] | 11 | 1520
Cc1nc(N)c2nc(-c3cccc(C#C[C@@]4(O)CCCN(C)C4=O)c3)ccc2n1 [Example 186, (S)-3-((3-(4-Amino-2-methylpyrido[3,2-d]pyrimidin-6-yl)phenyl)ethynyl)-3-hydroxy-1-methylpiperidin-2-one] | 710 | > 5000
Cc1nc(N)c2nc(-c3cccc(C#C[C@]4(O)CCCN(C)C4=O)c3)ccc2n1 [Example 187, (R)-3-((3-(4-Amino-2-methylpyrido[3,2-d]pyrimidin-6-yl)phenyl)ethynyl)-3-hydroxy-1-methylpiperidin-2-one] | 3.8 | 190
Cc1ccc(C#C[C@]2(O)CCN(C)C2=O)cc1-c1ncc2ncnc(N)c2n1 [Example 188, (R)-3-((3-(8-Aminopyrimido[5,4-d]pyrimidin-2-yl)-4-methylphenyl)ethynyl)-3-hydroxy-1-methylpyrrolidin-2-one] | 1 | 23
Cc1cc2ncnc(N)c2nc1-c1cccc(C#C[C@]2(O)CCN(C)C2=O)c1 [Example 189, (R)-3-((3-(4-Amino-7-methylpyrido[3,2-d]pyrimidin-6-yl)phenyl)ethynyl)-3-hydroxy-1-methylpyrrolidin-2-one] | 1.8 | 71
Cc1nc(N)c2nc(-c3cccc(C#C[C@@](C)(O)c4ccccn4)c3)ccc2n1 [Example 190, (R)-4-[3-(4-Amino-2-methyl-pyrido[3,2-d]pyrimidin-6-yl)phenyl]-2-(2-pyridyl)but-3-yn-2-ol] | 1830 | > 5000
Cc1nc(N)c2nc(-c3cccc(C#C[C@](C)(O)c4ccccn4)c3)ccc2n1 [Example 191, (S)-4-[3-(4-Amino-2-methyl-pyrido[3,2-d]pyrimidin-6-yl)phenyl]-2-(2-pyridyl)but-3-yn-2-ol] | 15 | 2980
Cc1nc(N)c2nc(-c3cccc(C#C[C@@](C)(O)c4nc(C(F)(F)F)cs4)c3)ccc2n1 [Example 192, (R)-4-(3-(4-Amino-2-methylpyrido[3,2-d]pyrimidin-6-yl)phenyl)-2-(4-(trifluoromethyl)thiazol-2-yl)but-3-yn-2-ol] | 1110 | > 5000
Cc1nc(N)c2nc(-c3cccc(C#C[C@](C)(O)c4nc(C(F)(F)F)cs4)c3)ccc2n1 [Example 193, (S)-4-(3-(4-Amino-2-methylpyrido[3,2-d]pyrimidin-6-yl)phenyl)-2-(4-(trifluoromethyl)thiazol-2-yl)but-3-yn-2-ol] | 2370 | > 5000
COc1ccc(C#C[C@]2(O)CCN(C)C2=O)cc1-c1nc2c(N)ncnc2s1 [Example 194, (R)-3-((3-(7-Aminothiazolo[5,4-d]pyrimidin-2-yl)-4-methoxyphenyl)ethynyl)-3-hydroxy-1-methylpyrrolidin-2-one] | 1 | 8.3
Cc1nc(N)c2nc(-c3cccc(C#C[C@@](C)(O)c4ncccn4)c3)ccc2n1 [Example 197, (R)-4-[3-(4-Amino-2-methyl-pyrido[3,2-d]pyrimidin-6-yl)phenyl]-2-pyrimidin-2-yl-but-3-yn-2-ol] | 6.3 | 380
Cc1nc(N)c2nc(-c3cccc(C#C[C@](C)(O)c4ncccn4)c3)ccc2n1 [Example 198, (S)-4-[3-(4-Amino-2-methyl-pyrido[3,2-d]pyrimidin-6-yl)phenyl]-2-pyrimidin-2-yl-but-3-yn-2-ol] | 1310 | > 5000
Cc1nc(N)c2nc(-c3cccc(C#C[C@@](C)(O)c4cnccn4)c3)ccc2n1 [Example 200, (R)-4-[3-(4-Amino-2-methyl-pyrido[3,2-d]pyrimidin-6-yl)phenyl]-2-pyrazin-2-yl-but-3-yn-2-ol] | 29 | 3190
Cc1nc(N)c2nc(-c3cccc(C#C[C@](C)(O)c4cnccn4)c3)ccc2n1 [Example 201, (S)-4-[3-(4-Amino-2-methyl-pyrido[3,2-d]pyrimidin-6-yl)phenyl]-2-pyrazin-2-yl-but-3-yn-2-ol] | 4030 | > 5000
